From the supplement of paper PMC10307832

Legend:
Assay in all cases: relative viability (nuclei count vs DMSO), 5 days (fraction); higher = more cells survive
Darinaparsin = compound: C[As](C)SC[C@H](NC(=O)CC[C@H](N)C(=O)O)C(=O)NCC(=O)O [Darinaparsin]
Outline: (§1)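 A plate was accepted only when its control CV was below 25% and the cells had doubled at least once. Viability is defined from nuclear counts as treated wells divided by vehicle wells, with the median taken across plates. That median covers lung cancer cell lines grown in 1536-well plates, dosed by pinning at five √10-spaced library-drug concentrations, and counted in MetaXpress from 4× Hoechst images after 5 days.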

AZ628 = compound: CC1=C(C=C(C=C1)NC(=O)C2=CC(=CC=C2)C(C)(C)C#N)NC3=CC4=C(C=C3)N=CN(C4=O)C [AZ628]
Outline: as §1

QS11 = compound: C1CC2=C(C1)C=C(C=C2)OC3=NC(=C4C(=N3)N(C=N4)CC5=CC=C(C=C5)C6=CC=CC=C6)N[C@@H](CC7=CC=CC=C7)CO [QS11]
Outline: as §1

Darinaparsin + Foretinib = compound: C[As](C)SC[C@H](NC(=O)CC[C@H](N)C(=O)O)C(=O)NCC(=O)O [Darinaparsin] + COc1cc2c(Oc3ccc(NC(=O)C4(C(=O)Nc5ccc(F)cc5)CC4)cc3F)ccnc2cc1OCCCN1CCOCC1 [Foretinib] (partner 0.25 µM)
Outline: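 Each reported value is a median over duplicate plates. It expresses relative viability: treated-well nuclei count divided by vehicle-well nuclei count. Lung cancer cell lines in 1536-well plates were dosed by pin tool a day after seeding, alone with one drug or with a fixed anchor-drug dose plus five library-drug doses (not always all listed) in √10 steps, and nuclei were counted after 5 days.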

Cell Line	relative viability (Darinaparsin; 0.08 µM)	relative viability (Darinaparsin; 0.8 µM)	relative viability (Darinaparsin; 2.53 µM)	relative viability (Darinaparsin; 8 µM)	relative viability (AZ628; 0.08 µM)	relative viability (AZ628; 0.253 µM)	relative viability (AZ628; 0.8 µM)	relative viability (AZ628; 2.53 µM)	relative viability (AZ628; 8 µM)	relative viability (QS11; 0.08 µM)	relative viability (QS11; 0.253 µM)	relative viability (QS11; 0.8 µM)	relative viability (QS11; 2.53 µM)	relative viability (QS11; 8 µM)	relative viability (Darinaparsin + Foretinib; first compound 0.08 µM)	relative viability (Darinaparsin + Foretinib; first compound 0.8 µM)	relative viability (Darinaparsin + Foretinib; first compound 2.53 µM)	relative viability (Darinaparsin + Foretinib; first compound 8 µM)
PC-3 [JPC-3]	1.14	1.06	1.05	1.08	1.05	1.06	1.16	1.11	0.951	0.965	1.04	0.956	1.04	1.02	1.13	1.03	1.1	1.13
PC-14	1.05	0.97	1.02	1.22	1.07	0.938	0.907	0.959	0.674	0.821	1.06	0.888	1.04	0.895	1.18	0.981	0.927	1.14
RERF-LC-KJ	1.05	1.07	0.944	1.12	1.01	0.981	0.883	0.965	0.887	0.98	0.954	0.912	0.974	0.981	1.03	0.931	0.859	0.961
SK-LU-1	1.27	0.876	0.821	1.22	0.653	0.901	0.931	0.892	0.769	0.968	1.07	0.984	0.993	0.97	1.13	0.76	0.65	0.958
SK-MES-1	1.15	1.05	0.948	1.26	0.945	0.99	0.923	0.92	0.595	1.12	0.952	0.941	0.95	0.946	1.05	0.808	0.595	1.05
SW 900	0.965	0.669	0.994	0.942	1.13	0.865	1.14	0.803	0.889	0.705	0.688	0.809	0.663	0.521	0.919	0.778	0.918	1.06
SW 1573	1.21	0.971	0.966	1.19	0.984	0.863	0.696	0.812	0.564	1.04	0.961	1.01	0.896	0.655	1.05	1.01	0.867	1.33
UMC-11	0.997	0.949	0.926	1.03	1.07	0.974	0.992	0.943	1.08	0.952	0.979	0.992	1.17	1.22	1.16	1.03	0.974	1.25
